In brackets after ≈: the same amount, converted by molar mass. Structures can show the parent of a compound that is named as a salt. Where two headings read alike, the source gives them in different places.
Assays:
hTRPV3 = hTRPV3 (Homo sapiens (Human), UniProt Q8NET8); assay: Whole-cell patch clamp, hTRPV3 Phase 1 / Phase 2 currents; format: cell-based
Summary of the method: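 Whole-cell recordings on induced TRPV3 cells replated on coverslips, held at −40 mV with 400 ms ramps from −120 to +100 mV every 5 s; currents read at −80 and +80 mV. Ringer's external solution; current activated by heating to ≥28 °C or 20 μM 2-APB.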

[1] = Aqueous solubility assay in Normal Ringer Solution; conditions: Normal Ringer Solution, saline or isotonic, kinetic from dmso stock
Procedure: Following vortex and incubation for a sufficient time (e.g. 40 minutes at room temperature), solutions were filtered, quenched with acetonitrile, and analyzed by Liquid Chromotography. Solubility Limits were determined by comparison to a standard curve.

[2] = Phase 1 current, inward, whole-cell patch clamp, read-out: hTRPV3 Patch P1 Inwd
[3] = Phase 1 current, read-out: hTRPV3 (nM) (Phase 1)
[4] = Phase 2 current, inward, whole-cell patch clamp, read-out: hTRPV3 Patch P2 Inwd
[5] = Phase 2 current, read-out: hTRPV3 (nM) (Phase 2)
[6] = Phase 1 current, human TRPV3, read-out: hTRPV3 (nM) Phase 1

Sequence of hTRPV3 (Q8NET8 whole entry): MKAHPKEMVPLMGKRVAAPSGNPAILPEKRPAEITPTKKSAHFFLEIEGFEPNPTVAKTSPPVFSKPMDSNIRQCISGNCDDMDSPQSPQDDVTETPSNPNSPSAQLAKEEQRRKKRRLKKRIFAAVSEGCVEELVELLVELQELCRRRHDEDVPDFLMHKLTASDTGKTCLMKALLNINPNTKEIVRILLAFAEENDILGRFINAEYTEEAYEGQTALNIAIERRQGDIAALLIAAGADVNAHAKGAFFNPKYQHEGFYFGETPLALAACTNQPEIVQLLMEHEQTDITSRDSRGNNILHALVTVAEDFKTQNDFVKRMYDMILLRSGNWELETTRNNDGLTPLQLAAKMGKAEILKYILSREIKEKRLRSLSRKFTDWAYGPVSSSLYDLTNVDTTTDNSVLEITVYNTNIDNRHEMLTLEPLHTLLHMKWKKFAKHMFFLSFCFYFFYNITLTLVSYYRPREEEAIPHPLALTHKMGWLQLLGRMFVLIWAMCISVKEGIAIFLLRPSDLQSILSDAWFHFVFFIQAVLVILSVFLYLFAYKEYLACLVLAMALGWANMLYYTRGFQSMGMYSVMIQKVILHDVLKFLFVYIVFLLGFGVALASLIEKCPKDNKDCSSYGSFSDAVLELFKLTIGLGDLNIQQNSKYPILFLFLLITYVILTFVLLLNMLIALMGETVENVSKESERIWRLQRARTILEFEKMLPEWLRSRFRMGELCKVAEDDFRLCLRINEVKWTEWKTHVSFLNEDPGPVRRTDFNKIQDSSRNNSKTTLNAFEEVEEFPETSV

Compound	IC50 (hTRPV3; [2]) [nM]	IC50 (hTRPV3; [3]) [nM]	IC50 (hTRPV3; [6]) [nM]	also measured
NC(=O)c1cc(-c2ccccn2)ccc1N1CC[C@H](Oc2ccc(C(F)(F)F)cn2)C1 [Compound 1-81, (S)-5-(pyridin-2-yl)-2-(3-(5-(trifluoromethyl)pyridin-2-yloxy)pyrrolidin-1-yl)benzamide]	> 1000	> 3200	–	IC50 (hTRPV3; [4]): > 1000 nM; IC50 (hTRPV3; [5]): 2190 nM; solubility at 40 min [1]: ~1.4 µM (≈ 0.6 µg/mL)
OCc1cc(-c2ccccn2)ccc1N1CC[C@H](Oc2ccc(C(F)(F)F)cn2)C1 [Compound 1-254, (S)-(5-(pyridin-2-yl)-2-(3-(5-(trifluoromethyl)pyridin-2-yloxy)pyrrolidin-1-yl)phenyl) methanol]	> 1000	1290	–	–
COCc1ccccc1Oc1ccc(N2CC[C@H](Oc3ccccn3)C2)c(CCO)c1 [Compound 1-348, (S)-2-(5-(2-(methoxymethyl)phenoxy)-2-(3-(pyridin-2-yloxy)pyrrolidin-1-yl)phenyl) ethanol]	> 1000	> 3200	–	–
NC(=O)c1cc(C(F)(F)F)ccc1N1CC[C@@H](Oc2ccc(C(F)(F)F)cn2)C1 [Compound 1-84, (R)-5-(trifluoromethyl)-2-(3-(5-(trifluoromethyl)pyridin-2-yloxy)pyrrolidin-1-yl)benzamide]	100 to 1000	631	–	–
COc1ccccc1-c1ccc(N2CC[C@H](Oc3ccc(Cl)cn3)C2)c(CO)n1 [Compound 1-202, (S)-(3-(3-(5-chloropyridin-2-yloxy)pyrrolidin-1-yl)-6-(2-methoxyphenyl)pyridin-2-yl)methanol]	–	–	–	hTRPV3 (nM) (Phase 1) (hTRPV3; Phase 1 current): Incomplete Block (Phase 1)
O=C(c1cocn1)N1CCC(c2ccc(-c3ccccc3C3CC3)cc2CO)C1 (stereo not drawn) [Compound 2-121]	–	–	61.2	–
NCc1cc(-c2ccccc2Cl)ccc1N1CC[C@H](Oc2ncccc2Cl)C1 [Compound 1-122, (S)-(2′-chloro-4-(3-(3-chloropyridin-2-yloxy)pyrrolidin-1-yl)biphenyl-3-yl)methanamine hydrochloride]	> 1000	> 3200	–	IC50 (hTRPV3; [4]): > 1000 nM; IC50 (hTRPV3; [5]): < 3200 nM
CC(C)c1ccccc1-c1ccc(C2CCN(C(=O)c3ccccn3)C2)c(C(N)=O)c1 (stereo not drawn) [Compound 2-45]	100 to 1000	–	929	–
Cc1cccnc1-c1ccc(N2CC[C@H](Oc3ccc(C(F)(F)F)cn3)C2)c(CO)c1 [Compound 1-255, (S)-(5-(3-methylpyridin-2-yl)-2-(3-(5-(trifluoromethyl)pyridin-2-yloxy)pyrrolidin-1-yl)phenyl)methanol]	100 to 1000	806	–	–
O=C(c1ncccc1Cl)N1CCC(c2ccc(C(O)c3ccc(F)cc3)cc2CO)C1 (stereo not drawn) [Compound 2-4, (3-chloropyridin-2-yl)(3-(4-((4-fluorophenyl)(hydroxy)methyl)-2-(hydroxymethyl)phenyl)pyrrolidin-1-yl)methanone]	> 1000	–	> 3200	–
Cc1ccccc1Oc1ccc(C2CCN(C(=O)c3ncccc3Cl)C2)c(CO)c1 (stereo not drawn) [Compound 2-84, (3-chloropyridin-2-yl)(3-(2-(hydroxymethyl)-4-(o-tolyloxy)phenyl)pyrrolidin-1-yl)methanone]	–	–	932	–
O=C(NCc1ccccc1)c1ccccc1N1CC[C@H](Oc2ccc(C(F)(F)F)cn2)C1 [Compound 1-51, (S)—N-benzyl-2-(3-(5-(trifluoromethyl)pyridin-2-yloxy)pyrrolidin-1-yl)benzamide]	–	–	–	IC50 (hTRPV3; [4]): > 1000 nM
O=C(c1ncccc1F)N1CCC(c2ccc(-c3ccccc3C3CC3)cc2CO)C1 (stereo not drawn) [Compound 2-74]	10 to 100	–	90.5	IC50 (hTRPV3; Phase 2 current, human TRPV3, read-out: hTRPV3 (nM) Phase 2): 54.6 nM; IC50 (hTRPV3; [4]): 10 to 100 nM
CC(C)c1ccccc1Oc1ccc(C2CC(=O)N(Cc3ccc(Cl)cn3)C2)c(C(N)=O)c1 (stereo not drawn) [Compound 2-102, 2-(1-((5-chloropyridin-2-yl)methyl)-5-oxopyrrolidin-3-yl)-5-(2-isopropylphenoxy)benzamide]	> 1000	–	~2150	–
CC(C)c1ccccc1Oc1ccc(C2CCN(C(=O)c3ccccn3)C2)c(CO)c1 (stereo not drawn) [Compound 2-13, (3-(2-(hydroxymethyl)-4-(2-isopropylphenoxy)phenyl)pyrrolidin-1-yl)(pyridin-2-yl)methanone]	100 to 1000	–	193	–
O=C(c1cccc(Cl)c1)c1ccc(N2CC[C@H](Oc3ncccc3Cl)C2)c(CCO)c1 [Compound 1-328, (S)-(3-chlorophenyl)(4-(3-(3-chloropyridin-2-yloxy)pyrrolidin-1-yl)-3-(2-hydroxyethyl)phenyl)methanone]	100 to 1000	615	–	–
CCc1cncnc1Oc1ccc(C2CCN(C(=O)c3ccc(F)cn3)C2)c(CO)c1 (stereo not drawn) [Compound 2-24, (3-(4-(5-ethylpyrimidin-4-yloxy)-2-(hydroxymethyl)phenyl)pyrrolidin-1-yl)(5-fluoropyridin-2-yl)methanone]	> 1000	–	> 3200	–
Cc1cccnc1O[C@H]1CCN(c2ccc(-c3ccccc3)cc2CCO)C1 [Compound 1-193, (S)-2-(4-(3-(3-methylpyridin-2-yloxy)pyrrolidin-1-yl)biphenyl-3-yl)ethanol]	100 to 1000	260	–	–

Compound	IC50 (hTRPV3; [2]) [nM]	IC50 (hTRPV3; [3]) [nM]	IC50 (hTRPV3; [6]) [nM]	also measured
NC(=O)c1cc(-c2ccccc2)ccc1N1CC[C@@H](Oc2ccccn2)C1 [Compound 1-78, (R)-4-(3-(pyridin-2-yloxy)pyrrolidin-1-yl)biphenyl-3-carboxamide]	100 to 1000	~835	–	IC50 (hTRPV3; [4]): 100 to 1000 nM; IC50 (hTRPV3; [5]): 402 nM
CCc1ccccc1Oc1ccc(C2CCN(C(=O)c3ccc(Cl)cn3)C2)c(C(N)=O)c1 (stereo not drawn) [Compound 2-39, 2-(1-(5-chloropicolinoyl)pyrrolidin-3-yl)-5-(2-ethylphenoxy)benzamide]	100 to 1000	–	681	–
O=C(c1ncccc1Cl)N1CCC(c2ccc(Oc3ccccc3)cc2CO)C1 (stereo not drawn) [Compound 2-85, (3-chloropyridin-2-yl)(3-(2-(hydroxymethyl)-4-phenoxyphenyl)pyrrolidin-1-yl)methanone]	–	–	3310	–
O=C(NCCO)c1cc(-c2ccccc2Cl)ccc1N1CC[C@H](Oc2ccc(C(F)(F)F)cn2)C1 [Compound 1-156, (S)-2′-chloro-N-(2-hydroxyethyl)-4-(3-(5-(trifluoromethyl)pyridin-2-yloxy)pyrrolidin-1-yl)biphenyl-3-carboxamide]	> 1000	3750	–	–
Cc1nccnc1C(=O)N1CCC(c2ccc(-c3ccccc3C3CC3)cc2CO)C1 (stereo not drawn) [Compound 2-104, (3-(2′-cyclopropyl-3-(hydroxymethyl)biphenyl-4-yl)pyrrolidin-1-yl)(3-methylpyrazin-2-yl)methanone]	100 to 1000	–	756	–
O=C(c1cccc(F)c1)c1ccc(N2CC[C@H](Oc3ncccc3Cl)C2)c(CCO)c1 [Compound 1-311, (S)-(4-(3-(3-chloropyridin-2-yloxy)pyrrolidin-1-yl)-3-(2-hydroxyethyl)phenyl)(3-fluorophenyl)methanone]	100 to 1000	417	–	–
CC(=O)c1ccc(Oc2ccc(N3CC[C@H](Oc4ccccn4)C3)c(CO)c2)c(F)c1 [Compound 1-306]	100 to 1000	982	–	IC50 (hTRPV3; [4]): 100 to 1000 nM; IC50 (hTRPV3; [5]): 735 nM
(S)-(6-(2-ethylphenoxy)-3-(3-(5-(trifluoromethyl)pyridin-2-yloxy)pyrrolidin-1-yl)pyridin-2-yl)methanol [Compound 1-212]	> 1000	> 3200	–	–
O=C(c1ncccn1)N1CCC(c2ccc(-c3ccccc3C3CC3)cc2CO)C1 (stereo not drawn) [Compound 2-122]	–	–	202	–
NCc1cc(-c2ccccc2Cl)ccc1N1CC[C@H](Oc2ccc(C(F)(F)F)cn2)C1 [Compound 1-118, (S)-(2′-chloro-4-(3-(5-(trifluoromethyl)pyridin-2-yloxy)pyrrolidin-1-yl)biphenyl-3-yl)methanamine]	> 1000	~1300	–	IC50 (hTRPV3; [4]): > 1000 nM; IC50 (hTRPV3; [5]): < 3200 nM
O=C(O)c1cc(-c2ccccc2)cnc1N1CC[C@@H](Oc2ccc(C(F)(F)F)cn2)C1 [Compound 1-91]	–	–	–	hTRPV3 (nM) (Phase 1) (hTRPV3; Phase 1 current): Agonist (Phase 1)
CCc1ccccc1C(O)c1ccc(N2CC[C@H](Nc3ncccc3Cl)C2)c(CO)c1 (stereo partly drawn) [Compound 1-386, (4-((S)-3-(3-chloropyridin-2-ylamino)pyrrolidin-1-yl)-3-(hydroxymethyl)phenyl)(2-ethylphenyl)methanol]	> 1000	~1260	–	IC50 (hTRPV3; [4]): > 1000 nM; IC50 (hTRPV3; [5]): ~2150 nM
NC(=O)c1nc(-c2ccccc2)ccc1N1CC[C@@H](Oc2ccc(C(F)(F)F)cn2)C1 [Compound 1-98, (R)-6-phenyl-3-(3-(5-(trifluoromethyl)pyridin-2-yloxy)pyrrolidin-1-yl)picolinamide]	100 to 1000	479	–	–
OCc1cc(Oc2cccc(OC(F)(F)F)c2)ccc1N1CC[C@H](Oc2ccccn2)C1 [Compound 1-307]	10 to 100	~59.5	–	–
N#Cc1ccccc1N1CCC(Oc2ccc3ccccc3n2)C1=O (stereo not drawn) [Compound 1-103, 2-(2-oxo-3-(quinolin-2-yloxy)pyrrolidin-1-yl)benzonitrile]	> 1000	> 3200	–	–
Cc1cccc(CN2CCC(c3ccc(Oc4ccccc4C(C)C)cc3CO)C2)n1 (stereo not drawn) [Compound 2-94, (5-(2-isopropylphenoxy)-2-(1-((6-methylpyridin-2-yl)methyl)pyrrolidin-3-yl)phenyl)methanol hydrochloride]	100 to 1000	–	339	–
CC(C)c1ccccc1Oc1ccc(C2CCN(C(=O)c3ccccn3)C2)c(C(N)=O)c1 (stereo not drawn) [Compound 2-31, 5-(2-isopropylphenoxy)-2-(1-picolinoylpyrrolidin-3-yl)benzamide]	> 1000	–	1370	–

Reference: patent US12435061B2 (priority 2020, dated 2025)
